Assay results taken from ChEMBL document CHEMBL1157942, “Bioactive diterpenes from the fruits of Detarium microcarpum” (2006).

Tested on: Cladosporium cucumerinum
Test: Antifungal activity against Cladosporium cucumerinum after 3 days
Assay type: functional

| Compound | Activity |
| --- | --- |
| C/C(=C/C(=O)O)CC[C@]1(C)[C@@H](C)CC[C@]2(C)[C@H]1CC[C@@H](O)[C@@]2(C)O | 10 µg |
| CC1=CC(=O)C[C@H]2[C@](C)(CC/C(C)=C/C(=O)O)[C@@H](C)CC[C@]12C | >100 µg |
| C/C(=C\C(=O)O)CC[C@@]1(C)[C@H]2CC[C@H]3O[C@@]3(C)[C@@]2(C)CC[C@@H]1C | 10 µg |
| CC1=CC(=O)C[C@H]2[C@](C)(CC/C(C)=C/C(=O)O)[C@H](C)CC[C@@]12C | 100 µg |
| C/C(=C\C(=O)O)CC[C@]1(C)[C@H](C)CC[C@]2(C)[C@H]1CC[C@H](O)[C@@]2(C)O | >100 µg |
| C=C1CC[C@@H]2C(C)(C)CCC[C@@]2(C)[C@@H]1CC/C(C)=C/C(=O)O [COPALIC ACID] | >100 µg |
| Clc1ccc(COC(Cn2ccnc2)c2ccc(Cl)cc2Cl)c(Cl)c1 (configuration not stated) [MICONAZOLE] | 1 µg |
